This note sets out measurements from PubChem BioAssay (NCI).

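Tested at 5 concentrations; 48 h exposure; 96-well plates; endpoints linearly interpolated, else capped at highest concentration. The concentration for full growth arrest is given as TGI.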

Holding throughout (assay): NCI tumour cell line growth inhibition, 48 h
Experiment [1] relates to U251 CNS.
The subject of experiment [2] is HS 578T breast.
Experiment [3] concerns HT29 colon.
In experiment [4] the test system is PC-3 prostate.
Experiment [5] concerns RXF 393 renal.
Experiment [6] deals with LOX IMVI melanoma.
In experiment [7] the test system is K-562 leukemia.
The test system of experiment [8] is MDA-MB-231 breast.
For experiment [9], the system named is OVCAR-3 ovarian.
Experiment [10] deals with CAKI-1 renal.
Experiment [11] deals with IGROV1 ovarian.
Experiment [12] concerns OVCAR-4 ovarian.
Experiment [13] concerns MDA-MB-435.
The test system of experiment [14] is NCI-H460 lung.
Experiment [15] concerns KM12 colon.
Experiment [16] has as its system HL-60(TB) leukemia.
Experiment [17] deals with MDA-N.
The subject of experiment [18] is HOP-62 NSCLC.
Experiment [19] deals with SK-MEL-28 melanoma.
For experiment [20], the system named is SNB-75 CNS.

With `Cc1ccc(S(=O)(=O)N2CCN(S(=O)(=O)c3ccc(C)cc3)CCN(S(=O)(=O)c3ccc(C)cc3)Cc3cc(Br)c(Br)cc3CN(S(=O)(=O)c3ccc(C)cc3)CC2)cc1`, the TGI in experiment [1], in experiment [2], in experiment [3], in experiment [4], in experiment [5] and in experiment [6] was more than 100 µM in each case. For the same compound, the TGI in experiment [7] was more than 100 µM; in [8], 71.1 µM; in experiment [9], more than 100 µM; in experiment [10], more than 100 µM; in experiment [11], more than 100 µM; in [12], more than 100 µM. Further, the TGI in experiment [13], in [14], in [15], in experiment [16], in experiment [17] and in experiment [18] was more than 100 µM each time. Further, the TGI in experiment [19] and in experiment [20] was more than 100 µM in each case.
Regarding `c1ccc2c(-c3csc(-c4c[nH]c5ccccc45)n3)c[nH]c2c1`, the TGI in experiment [1] is more than 100 µM; in [2], more than 100 µM; in [3], more than 83.6 µM; in experiment [4], more than 100 µM; in experiment [5], more than 100 µM; in [6] it was more than 100 µM. Besides, the TGI in experiment [7] was 15.1 µM; in [8] it was more than 100 µM; in experiment [9] it was more than 100 µM; in experiment [10] it was more than 100 µM; in experiment [11], more than 100 µM; in [12], more than 100 µM. For the same compound, the TGI in experiment [13] is more than 100 µM; in experiment [14] it was more than 100 µM; in experiment [15], more than 100 µM; in experiment [16], 47.6 µM; in experiment [17], more than 100 µM; in [18] it was more than 100 µM. In addition, the results for the TGI in [19] and in experiment [20] were more than 100 µM and more than 79.1 µM, respectively.
Take `COC1=C2CC(C)CC(OC)C(OC(=O)CCCN)C(C)/C=C(\C)C(OC(N)=O)C(OC)/C=C\C=C(/C)C(=O)NC(=CC1=O)C2=O` (stereo not given): the TGI is 34.5 µM in [1]; 40.7 µM in experiment [2]; 13.2 µM in experiment [3]; 22.4 µM in experiment [4]; 25.6 µM in [5]; 11.4 µM in experiment [6]. The TGI in experiment [7] came out at 19.4 µM; in experiment [8], 36.1 µM; in experiment [9], 16.8 µM; in experiment [10], 23.3 µM; in experiment [11] it was 18.6 µM; in experiment [12], 20.4 µM. The TGI was 12.4 µM in [13]; 36.5 µM in [14]; 25.7 µM in [15]; 1.65 µM in experiment [16]; 20.7 µM in experiment [17]; 32 µM in experiment [18]. Besides, the TGI in experiment [19] was 23.7 µM; in experiment [20] it was 36.3 µM.
Consider `C=CCNC(=O)CN(CC(=O)O)C1CCCCC1N(CC(=O)O)CC(=O)O` (stereo not given), for which the TGI in experiment [1], in experiment [2], in [3], in experiment [4], in experiment [5] and in [6] was more than 100 µM in each case. The TGI in experiment [7], in experiment [8], in [9], in [10], in [11] and in [12] was more than 100 µM throughout. For the same compound, the TGI in [13], in experiment [14], in experiment [15], in [16], in experiment [17] and in [18] was more than 100 µM throughout. In addition, the TGI in experiment [19] and in [20] was more than 100 µM each time.
`C#CCNC(=O)NC(CCCCNC(=O)OCc1ccccc1)C(=O)OCc1ccccc1` (stereo not given): the TGI in experiment [1] is more than 100 µM; in experiment [2] it was more than 100 µM; in experiment [3], more than 56.2 µM; in [4] it was more than 100 µM; in [5] it was 43.1 µM; in [6], more than 88.4 µM. In addition, the TGI is more than 100 µM in [7]; more than 58.7 µM in [8]; more than 100 µM in [9]; more than 100 µM in experiment [10]; more than 100 µM in [11]; more than 100 µM in experiment [12]. For the same compound, the TGI was 57.1 µM in [13]; more than 100 µM in experiment [14]; more than 100 µM in experiment [15]; 46.7 µM in [16]; more than 68.3 µM in [17]; more than 100 µM in experiment [18]. Further, the TGI in experiment [19] is 38.5 µM; in experiment [20], 37.3 µM.
Regarding `Cc1nc(N(C(C)C)C(C)C)c(C(C)C)o1`, the TGI in experiment [1], in experiment [2], in experiment [3], in experiment [4], in experiment [5] and in experiment [6] was more than 100 µM in each case. In addition, the TGI in [7], in [8], in experiment [9], in [10], in [11] and in [12] was more than 100 µM each time. Moreover, the TGI in [13], in experiment [14], in experiment [15], in [16], in experiment [17] and in experiment [18] was more than 100 µM each time. In addition, the TGI in [19] and in [20] was more than 100 µM each time.
For `CC(=O)NCCCCN(CCCNC(C)=O)C(=O)OCc1ccccc1`, the TGI in [1], in experiment [2], in [3], in experiment [4], in experiment [5] and in experiment [6] was more than 100 µM throughout. The TGI in [7], in experiment [8], in experiment [9], in experiment [10], in experiment [11] and in experiment [12] was more than 100 µM throughout. Moreover, the TGI in experiment [13], in experiment [14], in [15], in experiment [16], in experiment [17] and in experiment [18] was more than 100 µM throughout. For the same compound, the TGI in experiment [19] and in experiment [20] was more than 100 µM each time.
